Results as given in US20230416330A1, “Optimized GIP Peptide Analogues” (Antag Therapeutics ApS, priority 2019, published 2023).
Starred links: 1 amine or outer side, 2 acyl side, 3 side chain; linkers in the order of their positions; H or OH if unused. Non-standard residues stand in square brackets, D forms with d. Residues, ends and D or L forms follow the SMILES beside them. Groups on a side chain read outwards from the residue. *: point of attachment. C18 diacid = O=C(O)CCCCCCCCCCCCCCCCC(=O)*; C16 diacid = O=C(O)CCCCCCCCCCCCCCC(=O)*; γGlu = O=C(O)[C@H](CCC(=O)[*:2])N[*:1]; Adipoyl = O=C(CCCCC(=O)[*:2])[*:1]; Glutaryl = O=C(CCCC(=O)[*:2])[*:1]; AEEA = NCCOCCOCC(=O)O; Aib = CC(C)(N)C(=O)O

Experiments:
[1] = Solubility by visual inspection of peptide solutions; assay type: physicochemical
How it was run: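 Peptides dissolved at 1, 5, 7.5 or 15 mg/ml in 50 mM sodium phosphate pH 7.4 or water adjusted to pH 7.4 with NaOH, with gentle mixing. Immediate solubility judged visually as a clear, colorless solution.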

human GIP receptor = target: T1, human GIP receptor (Homo sapiens, UniProt P48546); test: cAMP assay Alternative 2 (Gaddum assay), antagonist potency pKb; assay type: cell-based; conditions: Table 2C; Gaddum equation, single antagonist dose; HEK-293 hGIPR; read-out: nM (Kb)
T1 construct: host or cells: HEK-293 cells, transient transfection (Lipofectamine 2000), cDNA in pCMV-Script vector
T1 sequence (P48546 22-466): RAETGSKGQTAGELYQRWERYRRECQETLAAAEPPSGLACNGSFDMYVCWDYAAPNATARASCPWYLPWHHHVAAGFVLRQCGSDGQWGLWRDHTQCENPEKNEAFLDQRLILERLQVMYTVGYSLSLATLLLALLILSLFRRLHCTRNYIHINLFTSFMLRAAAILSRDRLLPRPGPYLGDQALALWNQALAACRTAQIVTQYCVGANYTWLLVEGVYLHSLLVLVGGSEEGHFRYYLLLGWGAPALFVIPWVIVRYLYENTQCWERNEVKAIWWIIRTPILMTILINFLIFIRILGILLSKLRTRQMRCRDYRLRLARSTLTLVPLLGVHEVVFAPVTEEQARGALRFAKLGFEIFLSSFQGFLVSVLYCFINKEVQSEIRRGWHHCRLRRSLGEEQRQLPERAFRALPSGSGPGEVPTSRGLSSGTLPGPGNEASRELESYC
Method: HEK293 cells were cultured in 10% CO2 and 37° C. in Dulbecco's modified Eagle's medium supplemented with 10% fetal bovine serum, 2 mM glutamine, 180 units/ml penicillin, and 45 µg/ml streptomycin. Transient transfection with hGIPR for the CisBio assay from Table 2C was performed by using Lipofectamine 2000.
Antagonist potency (pKb) was estimated in a functional setting. The estimated pKb values were calculated from the shifts of the agonist-concentration-response curves in the presence of a single dose of GIP peptide antagonists using the Gaddum equation: pKb=log(DR-1)-log(B), where DR (EC50′/EC50) is the dose ratio calculated from EC50 of GIP1-42 obtained in the presence and absence (EC50) of antagonist, and B is the antagonist concentration used.
The in vitro functional assessment of compounds towards human GIP receptor was determined in HEK-293 cells transiently expressing the receptor. On the day of the assay, cells were resuspended in HBSS buffer (Gibco, 14025-50) supplemented with […] (Gibco, 15630-106), 0.1% Pluronic F-68 (Gibco, 24040-032) and 0.1% casein (Sigma, C4765), and plated in 384-well plates at a density of 3500 cells/well. The GIP peptide analogues of the present disclosure were diluted in HBSS buffer supplemented with 20 mM HEPES, 0.1% pluronic, 0.1% casein and 500 uM IBMX. […] Increasing dose of agonist (GIP1-42) was subsequently added to cells and incubated for additionally 30 min at 37° C. The intracellular cAMP was quantitatively determined using the CisBio cAMP Dynamic 2 HTRF Assay Kit. The assay is based on a competition between native cAMP produced by cells and cAMP labeled with the dye d2 for binding to a cryptate labeled antibody. The specific signal (i.e. energy transfer signal) is inversely proportional to the concentration of cAMP in the sample.
The cAMP-d2 conjugate and the antibody anti-cAMP-Cryptate, both diluted in lysis buffer provided in the kit, were added to the cells according to the manufacturer's protocol. The resulting competitive assay was incubated for 60 minutes at room temperature, and the signal was detected by using a PerkinElmer Envision® instrument with excitation at 320 nm and emission at 665 nm and 620 nm. The HTRF ratio (emission at 665 nm/620 nm*10,000) is inversely proportional to the amount of cAMP present and is converted to nM cAMP per well using a cAMP standard curve.

[2] = Physical stability: fibril formation in Thioflavin T (ThT) assay with agitation; assay type: physicochemical; conditions: 25° C., agitation
How it was run: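 Peptides at 1, 5, 7.5 or 15 mg/ml in 50 mM sodium phosphate pH 7.4 or in water adjusted to pH 7.4 with NaOH, filtered 0.22 μm, with ThT added. Wells held a 3 mm silica bead under 300 rpm orbital agitation at 25° C. Emission at 486 nm tracked continuously; lag time = 10% of transition above baseline.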

SMILES | Visual appearance ([1]; 1 mg/ml, TFA, Phosphate (7.4)) | Kb (human GIP receptor) [nM] | Avr lag time (h) ([2]; 1 mg/ml, TFA, Phosphate (7.4)) | Visual appearance ([1]; 7.5 mg/ml, Na, MilliQ (8)) | Visual appearance ([1]; 15 mg/ml, Na, MilliQ (8)) | Avr lag time (h) ([2]; 7.5 mg/ml, Na, MilliQ (8)) | Avr lag time (h) ([2]; 15 mg/ml, Na, MilliQ (8))
CC[C@H](C)[C@H](NC(=O)[C@H](CCCCN)NC(=O)[C@H](CCC(=O)O)NC(=O)[C@H](CC(C)C)NC(=O)C(C)(C)NC(=O)[C@@H](NC(=O)[C@H](CO)NC(=O)[C@H](Cc1ccc(O)cc1)NC(=O)[C@H](CCC(=O)O)NC(=O)[C@H](CO)NC(=O)[C@@H](NC(=O)[C@H](Cc1ccccc1)NC(=O)[C@@H](NC(=O)CNC(=O)CCCC(=O)O)[C@@H](C)O)[C@@H](C)CC)[C@@H](C)CC)C(=O)N[C@@H](CCCCNC(=O)COCCOCCNC(=O)COCCOCCNC(=O)CC[C@H](NC(=O)CCCCCCCCCCCCCCCCC(=O)O)C(=O)O)C(=O)N[C@@H](CCC(N)=O)C(=O)N[C@@H](CCC(N)=O)C(=O)N[C@@H](CCC(=O)O)C(=O)N[C@@H](Cc1ccccc1)C(=O)N[C@H](C(=O)N[C@@H](CCC(=O)O)C(=O)N[C@@H](Cc1c[nH]c2ccccc12)C(=O)N[C@@H](CC(C)C)C(=O)N[C@@H](CC(C)C)C(=O)N[C@@H](C)C(=O)N[C@@H](CCC(N)=O)C(=O)N[C@@H](CCCCN)C(=O)N1CCC[C@H]1C(=O)N[C@@H](CO)C(=O)N[C@@H](CO)C(=O)NCC(=O)N[C@@H](C)C(=O)N1CCC[C@H]1C(=O)N1CCC[C@H]1C(=O)N1CCC[C@H]1C(=O)N[C@@H](CO)C(=O)O)C(C)C [AT705] (Glutaryl-GTFISEYSI[Aib]LEKIK([AEEA-AEEA-γGlu-C18 diacid])QQEFVEWLLAQKPSSGAPPPS-OH) | Clear | 0.23 | fnd (Fnd = fibrils not detected within experiment time (96 hours) with agitation.) |  |  |  | 
CC[C@H](C)[C@H](NC(=O)[C@H](CCCCN)NC(=O)[C@H](CCC(=O)O)NC(=O)[C@H](CC(C)C)NC(=O)C(C)(C)NC(=O)[C@@H](NC(=O)[C@H](CO)NC(=O)[C@H](Cc1ccc(O)cc1)NC(=O)[C@H](CCC(=O)O)NC(=O)[C@H](CO)NC(=O)[C@@H](NC(=O)[C@H](Cc1ccccc1)NC(=O)[C@@H](NC(=O)CNC(=O)CCCC(=O)O)[C@@H](C)O)[C@@H](C)CC)[C@@H](C)CC)C(=O)N[C@@H](CCCCNC(=O)COCCOCCNC(=O)COCCOCCNC(=O)CC[C@H](NC(=O)CCCCCCCCCCCCCCCCC(=O)O)C(=O)O)C(=O)N[C@@H](CCC(N)=O)C(=O)N[C@@H](CCC(N)=O)C(=O)N[C@@H](CCC(=O)O)C(=O)N[C@@H](Cc1ccccc1)C(=O)N[C@H](C(=O)N[C@@H](CCC(=O)O)C(=O)N[C@@H](Cc1c[nH]c2ccccc12)C(=O)N[C@@H](CC(C)C)C(=O)N[C@@H](CC(C)C)C(=O)N[C@@H](C)C(=O)N[C@@H](CCC(N)=O)C(=O)N[C@@H](CCCCN)C(=O)N1CCC[C@H]1C(=O)N[C@@H](CO)C(=O)N[C@@H](CO)C(=O)NCC(=O)N[C@@H](C)C(=O)N1CCC[C@H]1C(=O)N1CCC[C@H]1C(=O)N1CCC[C@H]1C(=O)N[C@@H](CO)C(N)=O)C(C)C [AT713] (Glutaryl-GTFISEYSI[Aib]LEKIK([AEEA-AEEA-γGlu-C18 diacid])QQEFVEWLLAQKPSSGAPPPS-NH2) | Clear | 0.31 | fnd (Fnd = fibrils not detected within experiment time (96 hours) with agitation.) | Clear | Clear | fnd (Fnd = fibrils not detected within experiment time (96 hours) with agitation.) | fnd (Fnd = fibrils not detected within experiment time (96 hours) with agitation.)
CC[C@H](C)[C@H](NC(=O)[C@H](CCCCN)NC(=O)[C@H](CCC(=O)O)NC(=O)[C@H](CC(C)C)NC(=O)C(C)(C)NC(=O)[C@@H](NC(=O)[C@H](CO)NC(=O)[C@H](Cc1ccc(O)cc1)NC(=O)[C@H](CCC(=O)O)NC(=O)[C@H](CO)NC(=O)[C@@H](NC(=O)[C@H](Cc1ccccc1)NC(=O)[C@@H](NC(=O)CNC(=O)[C@@H](N)CCC(=O)O)[C@@H](C)O)[C@@H](C)CC)[C@@H](C)CC)C(=O)N[C@@H](CCCCNC(=O)C(C)(C)NC(=O)CCCCCCCCCCCCCCC(=O)O)C(=O)N[C@@H](CCC(N)=O)C(=O)N[C@@H](CCC(N)=O)C(=O)N[C@@H](CCC(=O)O)C(=O)N[C@@H](Cc1ccccc1)C(=O)N[C@H](C(=O)N[C@@H](CCC(=O)O)C(=O)N[C@@H](Cc1c[nH]c2ccccc12)C(=O)N[C@@H](CC(C)C)C(=O)N[C@@H](CC(C)C)C(=O)N[C@@H](C)C(=O)N[C@@H](CCC(N)=O)C(=O)N[C@@H](CCCCN)C(=O)N1CCC[C@H]1C(=O)N[C@@H](CO)C(=O)N[C@@H](CO)C(=O)NCC(=O)N[C@@H](C)C(=O)N1CCC[C@H]1C(=O)N1CCC[C@H]1C(=O)N1CCC[C@H]1C(=O)N[C@@H](CO)C(=O)O)C(C)C [AT720] (H-EGTFISEYSI[Aib]LEKIK([Aib-C16 diacid])QQEFVEWLLAQKPSSGAPPPS-OH; N-terminus assumed) |  | 0.29 |  | Clear | Clear | fnd (Fnd = fibrils not detected within experiment time (96 hours) with agitation.) | fnd (Fnd = fibrils not detected within experiment time (96 hours) with agitation.)
CC[C@H](C)[C@H](NC(=O)[C@H](CCCCN)NC(=O)[C@H](CCC(=O)O)NC(=O)[C@H](CC(C)C)NC(=O)C(C)(C)NC(=O)[C@@H](NC(=O)[C@H](CO)NC(=O)[C@H](Cc1ccc(O)cc1)NC(=O)[C@H](CCC(=O)O)NC(=O)[C@H](CO)NC(=O)[C@@H](NC(=O)[C@H](Cc1ccccc1)NC(=O)[C@@H](NC(=O)CNC(=O)CCCCC(=O)O)[C@@H](C)O)[C@@H](C)CC)[C@@H](C)CC)C(=O)N[C@@H](CCCCNC(=O)COCCOCCNC(=O)COCCOCCNC(=O)CC[C@H](NC(=O)CCCCCCCCCCCCCCCCC(=O)O)C(=O)O)C(=O)N[C@@H](CCC(N)=O)C(=O)N[C@@H](CCC(N)=O)C(=O)N[C@@H](CCC(=O)O)C(=O)N[C@@H](Cc1ccccc1)C(=O)N[C@H](C(=O)N[C@@H](CCC(=O)O)C(=O)N[C@@H](Cc1c[nH]c2ccccc12)C(=O)N[C@@H](CC(C)C)C(=O)N[C@@H](CC(C)C)C(=O)N[C@@H](C)C(=O)N[C@@H](CCC(N)=O)C(=O)N[C@@H](CCCCN)C(=O)N1CCC[C@H]1C(=O)N[C@@H](CO)C(=O)N[C@@H](CO)C(=O)NCC(=O)N[C@@H](C)C(=O)N1CCC[C@H]1C(=O)N1CCC[C@H]1C(=O)N1CCC[C@H]1C(=O)N[C@@H](CO)C(=O)O)C(C)C [AT753] (Adipoyl-GTFISEYSI[Aib]LEKIK([AEEA-AEEA-γGlu-C18 diacid])QQEFVEWLLAQKPSSGAPPPS-OH) |  | 0.23 |  |  |  |  | 
